From patent publication US5866576A, “Epoxide-containing compounds” (Cell Therapeutics, Inc., priority 1997, dated 1999)

Tests used:
[1] = test system: normal human bone marrow stromal cells (MSC); assay: human bone marrow stromal cell (MSC) proliferation in response to PDGF BB and IL-1α; format: cell-based; conditions: Table III, PDGF BB 50 ng/ml and IL-1α 10 ng/ml
Protocol: This example illustrates the effects of inventive compounds nos. 1114, 1413, 1560, 1565, 1594, 2518, 2548R, 2548S and 3503 as effective inhibitors of normal human bone marrow stromal cells (MSC) proliferation in response to Platelet Derived Growth Factor BB (PDGF B) and IL-1α (50 and 10 ng/ml, respectively).
MSC were obtained and malintained in exponential growth, released from a growth plate with trypsin and plated into 96 well tissue culture plates in the presence of Fibroblast Growth Factor (FGFβ) for 48 hours. Growth media were removed and the cells were washed once with serum free media. The cells were then incubated 20-24 hours in serum free media.
After incubation, inventive compounds were added to the cells at the appropriate concentration and then the cells again incubated for 1 hour. PDGF B and IL-1α were added to the cells along with 3H-thymidine and the cells again incubated for an additional 24 hours.
After 24 hours of incubation, the cells were then harvested to assess incorporation of ^3 H-thymidine into DNA (proliferation). From each harvested cell culture, an IC-50 for each inventive compound tested was determined. Therefore, a lower reported IC-50 value is indicatilve of greater activity of the invention compounds in inhibiting MSC proliferation. Table III illustrates IC-50 values (in μM) for invention compounds inhibiting MSC proliferation at very low concentrations of compound.

lymph node cells = assay: ovalbumin-induced proliferation in murine lymph cells (FIG. 13); format: cell-based, Balb/C mice; conditions: Mus musculus, OVA 200 μg/ml
Excerpt: This example illustrates effects of the inventive compounds on ovalbumin-induced proliferation in murine lymph cells. Lymphnode cells contain a mixture of lymphoid cells: T-cells, B-cells and macrophages. Although proliferating cells in this assay are T-cells, the response obtained depends on type of antigen-presenting cell (e.g., macrophages) as well as elaboration of various immunoregulatory cytokines. Thus, this assay serves as a good model for T-cell mediated responses and as a valuable screening tool in identifying compounds useful in immunosuppressive therapeutic applications.
Murine T-cells proliferate in vitro in response to a soluble protein antigen if first primed with a corresponding antigen in vivo. This in vivo priming usually involves emulsifying the antigen in complete Freunds adjuvant and injecting this preparation into an appropriate site on a mouse. In this assay the antigen employed was chicken ovalbumin(OVA). Following emulsification in Freund's complete adjuvant, 50 μg of OVA were injected into both hind footpads of adult Balb/C mice. Fourteen days later the draining lymph nodes(popliteal) were removed and a single cell suspension was prepared in RPMI-1640 (10%FCS) medium. Two hundred thousand lymph node cells are then plated into wells of flat-bottom 96-well plates. Inventive compouds nos. 1410, 1553 (racemic), 1553(S), 1560 and 1565 were added to appropriate wells at various concentrations. OVA, at a final concentration of 200 μg/ml, was added to appropriate wells. Positive and negative controls were established on each plate, all assay variables being set up in quadruplicate.
The plates were incubated in a humidified, 5% CO2 incubator for 5 days. On the fifth day, 1 μCi of tritiated thymidine was added to each well and the plates were incubated for an additional 4 hours. The plates were harvested and the incorporation of 3H-TdR was determined in a liquid scintillation counter. The CPM data was then used to calculate experimental IC50 values for the compounds tested. Again, IC50 is defined as that concentration of compound resulting in 50% inhibition of 3H-TdR incorporation of the positive control.

SMILES: Cn1cnc2c1c(=O)n(CCCCCCCC1CO1)c(=O)n2C (centres unmarked) [Compound 1560, 1-(8,9-Oxidononyl)-3,7-dimethylxanthine]
- IC50 [1]: 6.6 µM
- IC50 (lymph node cells): 34 µM
